ChEMBL document CHEMBL4342437, “Development and structure-activity relationship study of SHP2 inhibitor containing 3,4,6-trihydroxy-5-oxo-5H-benzo[7]annulene” (Bioorg Med Chem Lett, 2020)
Calls of active or inactive are those of the source. No cut-off for these calls is given here.

Key:
[1] = target: T1, Tyrosine-protein phosphatase non-receptor type 11 (Homo sapiens) (UniProt Q06124); experiment: Inhibition of recombinant human SHP2 expressed in Escherichia coli using 2P-IRS1 peptide as substrate at 1 uM after 1 hr by microplate reader analysis relative to control
T1 sequence (whole entry): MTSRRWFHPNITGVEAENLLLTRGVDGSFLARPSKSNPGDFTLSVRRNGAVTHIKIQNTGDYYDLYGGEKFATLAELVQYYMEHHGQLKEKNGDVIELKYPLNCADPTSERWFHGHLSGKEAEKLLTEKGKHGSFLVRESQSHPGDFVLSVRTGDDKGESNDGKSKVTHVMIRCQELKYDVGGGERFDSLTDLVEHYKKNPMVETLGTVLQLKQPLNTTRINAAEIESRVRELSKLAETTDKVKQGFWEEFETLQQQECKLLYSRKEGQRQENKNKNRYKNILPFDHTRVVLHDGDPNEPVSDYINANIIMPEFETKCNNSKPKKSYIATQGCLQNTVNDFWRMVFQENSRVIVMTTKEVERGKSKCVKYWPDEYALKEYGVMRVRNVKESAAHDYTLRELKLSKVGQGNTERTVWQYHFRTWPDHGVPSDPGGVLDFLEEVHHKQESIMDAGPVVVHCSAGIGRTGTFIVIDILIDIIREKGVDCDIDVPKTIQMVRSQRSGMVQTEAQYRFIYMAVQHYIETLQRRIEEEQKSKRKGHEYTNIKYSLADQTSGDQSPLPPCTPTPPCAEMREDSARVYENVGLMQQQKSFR

[2] = target: T2, Tyrosine-protein phosphatase non-receptor type 11 (Homo sapiens, UniProt Q06124); experiment: Inhibition of recombinant human SHP2 expressed in Escherichia coli using 2P-IRS1 peptide as substrate after 1 hr by microplate reader analysis
T2 sequence (Q06124 whole entry): T1 sequence (whole entry)

[3] = tested on: MDA-MB-468; experiment: Antiproliferative activity against human MDA-MB-468 cells assessed as reduction in cell viability after 2 to 4 days by CCK-8 assay; format: functional, cell-based
[4] = tested on: MDA-MB-468; experiment: Antiproliferative activity against human MDA-MB-468 3D spheroids assessed as reduction in cell viability after 2 to 4 days by CCK-8 assay; format: functional, cell-based
[5] = tested on: MDA-MB-468; experiment: Antiproliferative activity against SHP2 knockout human MDA-MB-468 cells with assessed as increase in cell viability at 100 uM after 2 to 4 days by CCK-8 assay relative to MDA-MB-468 cells expressing SHP2; format: functional
[6] = tested on: MDA-MB-468; experiment: Antiproliferative activity against human MDA-MB-468 3D spheroids assessed as reduction in cell viability at 20 uM after 2 to 4 days by CCK-8 assay relative to control; format: functional
[7] = tested on: MDA-MB-468; experiment: Potency index, ratio of SHP099 IC50 to compound IC50 for antiproliferative activity against human MDA-MB-468 cells after 2 to 4 days by CCK-8 assay; format: functional
[8] = target: T1, Tyrosine-protein phosphatase non-receptor type 11 (Homo sapiens); experiment: Non-competitive inhibition of recombinant human SHP2 expressed in Escherichia coli using 2P-IRS1 peptide as substrate up to 200 uM after 1 hr by Lineweaver-Burk plot analysis

| SMILES | inhibition [1] [%] | IC50 [2] [µM] | other results |
| --- | --- | --- | --- |
| COC(=O)c1cc(O)c(=O)c2c(O)c(O)c(OC)cc2c1 | 6 | 8.66 | – |
| CC1(N)CCN(c2cnc(-c3cccc(Cl)c3Cl)c(N)n2)CC1 | – | – | IC50 [3]: 29.9 µM; IC50 [4]: 49.6 µM |
| O=c1c(O)cc(-c2nc(CCl)co2)cc2ccc(O)c(O)c12 | 29 | 1.57 | – |
| COC(=O)c1cc(OC)c(=O)c2c(OC)c(OC)ccc2c1 | 0 | – | – |
| O=c1c(O)cccc2ccc(O)c(O)c12 | 0 | – | – |
| CCOC(=O)c1cc(O)c(=O)c2c(O)c(O)c(F)cc2c1 | 19 | 6.54 | – |
| CC(C)OC(=O)c1cc(O)c(=O)c2c(O)c(O)ccc2c1 | 2 | 4.87 | – |
| NC(=O)c1cc(O)c(=O)c2c(O)c(O)ccc2c1 | 13 | 4.11 | – |
| COc1cc2cc(C(N)=O)cc(O)c(=O)c2c(O)c1O | 0 | – | – |
| CC(C)OC(=O)c1cc(O)c(=O)c2c(O)c(O)c(F)cc2c1 | 0.47 | 7.74 | – |
| COc1ccc2cc(C(=O)O)cc(OC)c(=O)c2c1OC | 0 | – | – |
| COC(=O)c1cc(O)c(=O)c2c(O)c(O)c(F)cc2c1 | 12 | 7.55 | – |

Further lines, with some results ahead:

| inhibition [1] [%] | IC50 [2] [µM] | SMILES | other results |
| --- | --- | --- | --- |
| 90 | 0.277 | O=C(O)c1cc(O)c(=O)c2c(O)c(O)c(F)cc2c1 | IC50 [3]: 71 µM; IC50 [4]: 39.2 µM; fold change (FC) [5]: 16.3; Activity [6]: 37.2% |
| 40 | 1.23 | N#Cc1cc(O)c(=O)c2c(O)c(O)ccc2c1 | – |
| 50 | 0.985 | CCOC(=O)c1cc(O)c(=O)c2c(O)c(O)ccc2c1 | – |
| 52 | 0.949 | NC(=O)c1cc(O)c(=O)c2c(O)c(O)c(F)cc2c1 | – |
| 87 | 0.161 | COC(=O)c1cc(O)c(=O)c2c(O)c(O)ccc2c1 [METHYL 7-DESHYDROXYPYROGALLIN-4-CARBOXYLATE] | IC50 [3]: 4.6 µM; IC50 [4]: 62.9 µM; fold change (FC) [5]: 3; Activity [6]: 27.5% |
| 93 | 0.097 | O=C(O)c1cc(O)c(=O)c2c(O)c(O)ccc2c1 [7-DESHYDROXYPYROGALLIN-4-CARBOXYLIC ACID] | IC50 [3]: 5.3 µM; IC50 [4]: 35.8 µM; Ratio IC50 [7]: 5.6; fold change (FC) [5]: 19.3; Activity [6]: 35.7%; inhibition [8]: Active |
